# In publication PMC9653995, “New Positive TRPC6 Modulator Penetrates Blood–Brain Barrier, Eliminates Synaptic Deficiency and Restores Memory Deficit in 5xFAD Mice” (International Journal of Molecular Sciences, 2022):
# Key:
# [1] = In vitro stability in pooled mouse blood plasma; assay type: in vitro ADME; conditions: 1 µM, 37 °C
# Experimental: The stability of C20 was assessed during incubation with pooled mouse plasma samples for 4 h at 37 °C. To confirm the activity of blood plasma enzymes in the control substance, propantheline (Figure 4A) was used.
# The compound C20, at a final concentration of 1 μM, was incubated in mouse plasma at 37 °C with moderate shaking at 300 rpm in a shaker-incubator. After 0, 15, 30, 60 and 240 min, the samples were mixed, aliquots were obtained, and the samples were analyzed by HPLC-MS/MS. Propantheline was used as a control compound. Incubation of compounds with plasma samples was carried out in duplicate. Overall, 100% was obtained as the amount of a substance determined using a mass spectrometer in blood plasma in a 0 min incubation time period.
# A total of 3 µL of 100-fold C20 or propantheline substance (0.1 mM) was added to 297 µL of blood plasma preheated to 37 °C to a final concentration of 1 µM.
# Aliquots of 30 μL for the time point T = 0 were transferred into microtubes with a capacity of 1.1 mL pre-filled with 180 μL of chilled MeCN with an internal standard of Tolbutamide (IS) at a concentration of 50 ng/mL. Mixed and kept at +4 °C for 15 min. […]
# The values of the areas of chromatographic peaks of substances in the studied samples normalized to the area of IS were used for calculations. The 100% of the tested substance from the initial amount was determined at T = 0 min of incubation. […]
# [2] = tested on: 5xFAD mice; experiment: Contextual and cued fear conditioning test; assay type: in vivo, mouse; conditions: 10 mg/kg i.p. daily for 14 days
# Experimental: To analyze the effect of C20 on the cognitive status of diseased mice, a contextual and cued fear conditioning test was performed in the 5xFAD mice. Two WT cohorts and two 5xFAD cohorts of eight mice each were intraperitoneally injected (every day for 14 days) with either C20 (10 mg/kg) or an equal amount of vehicle.
# Six-month-old 5xFAD and WT mice were intraperitoneally injected with C20 (10 mg/kg b.w. dissolved in ethanol (13.5%) and diluted in 0.9% saline (86.5%)) or an equal volume of ethanol diluted in 0.9% saline (vehicle) once daily for 14 days. To analyze the effect of C20 on cognitive behavior, mice were subjected to hippocampus-dependent contextual fear conditioning and hippocampus independent tone fear conditioning (n = 8 mice in each group).
# According to a 3-day delay fear conditioning protocol, the conditioned stimulus is presented and overlapped by the presentation of the unconditioned stimulus. The experiments were performed using a standard conditioning chamber (25 cm × 20 cm × 30 cm) with a stainless steel floor connected to an electric shock generator. The chamber was housed in a soundproof isolation cubicle. Measurements were accomplished through two cameras (Web camera FI#2.0 8mm и Webcam Logitech C200, Apples, Switzerland), connected to a computer with video freeze software (AUTO_URAI_4 developer Dr. V.V. Sizov, Institute of Experimental Medicine, Saint Petersburg, Russia, I.P. Pavlov Department of Physiology, sizoff@list.ru).
# To exclude possible freezing due to the novel environment, we allowed the mice to habituate to the chamber. On day 1 (habituation), we brought mice into the habituation room and placed them into a training chamber individually for 5 min without any cue.
# On day 2 (training), we placed each mouse in the conditioning chamber for 2 min without any shock or tone. Then, mice received two repetitions of a tone (500 Hz, 55 dB) that simultaneously ended with a 2 s foot shock (0.3 mA, US) with 60 s inter-trial intervals. Mice were allowed to recover after the foot-shock for an additional 60 s before being removed to their home cage.
# On day 3 (testing), mice were placed back in the familiar fear conditioning chamber, but in the absence of tones and foot shocks. The freezing behavior was measured for 180 s to test contextual memory retrieval. For the tone fear retrieval trial one hour after the contextual test, mice were placed in an altered conditioning chamber with black and white striped walls, a covered floor, and a vanilla extract scent. After 180 s of baseline in an altered conditioning recording, a tone similar to the one used during the fear conditioning training was presented for 180 s. The freezing behavior before and during the tone was measured.
# [3] = tested on: TRPC3; conditions: cited from earlier work
smiles,measurement,setting,value
"COc1cc2c(cc1OC)C(c1cc3ccccc3oc1=O)=NC(C)(C)C2 [C20, 3-(3-,4-Dihydro-6,7-dimethoxy-3,3-dimethyl-1-isoquinolinyl)-2H-1-benzopyran-2-one]",initial amount remaining in mouse blood plasma,[1]; after 4 h incubation,about 62%
same,concentration remaining in mouse blood plasma,[1]; during the first hour of incubation,above 85%
same,freezing time to context,"[2]; 6-month-old 5xFAD mice, 5xFAD + vehicle 33.88 ± 15.09%",67.00 ± 17.78%
same,freezing time to tone,"[2]; 6-month-old 5xFAD mice, 5xFAD + vehicle 37.75 ± 8.25%",63.50 ± 13.38%
same,freezing time to context,"[2]; WT mice, WT + vehicle 58.25 ± 19.06%",59.63 ± 17.53%
same,freezing time to tone,"[2]; WT mice, WT + vehicle 69.25 ± 18.19%",67.75 ± 7.56%
same,activation of TRPC3,[3],does not activate TRPC3
